Data: the NIST ThermoML archive (doi:10.1016/j.jct.2015.05.004)

Experiment: xn = mol fraction of the nth substance listed
Conditions: 100 kPa, Liquid; for speed of sound: Frequency=3 MHz, Sing-around technique in a fixed-path interferometer; for mass density: Vibrating tube method

CC(=O)O [acetic acid] + CCCCn1cc[n+](C)c1.N#C[S-]
x2 = 0
Conditions	mass density [kg/m3]	speed of sound [m/s]
293.15 K	1049.75	1152.7
298.15 K	1044.13	1135.7
303.15 K	1038.48	1118.4
308.15 K	1032.83	1101.2
313.15 K	1027.18	1084

CCCCn1cc[n+](C)c1.N#C[S-] [1-butyl-3-methylimidazolium thiocyanate] + CC(=O)O
Conditions	mass density, 293.15 K [kg/m3]	mass density, 298.15 K [kg/m3]	mass density, 303.15 K [kg/m3]	mass density, 308.15 K [kg/m3]	mass density, 313.15 K [kg/m3]	speed of sound, 293.15 K [m/s]	speed of sound, 298.15 K [m/s]	speed of sound, 303.15 K [m/s]	speed of sound, 308.15 K [m/s]	speed of sound, 313.15 K [m/s]
x1 = 0.058	1064.97	1060.08	1055.2	1050.32	1045.44	1270.5	1252.4	1235.9	1218.7	1202
x1 = 0.1206	1070.89	1066.45	1062	1057.56	1053.12	1369.6	1353.9	1338	1322.1	1306.4
x1 = 0.1878	1072.93	1069.2	1064.96	1060.77	1056.64	1448.3	1433.8	1419	1404.2	1389.4
x1 = 0.2632	1073.93	1070.07	1066.21	1062.35	1058.51	1520	1506.3	1492.2	1478.1	1464.2
x1 = 0.3498	1073.95	1070.59	1066.92	1063.27	1059.63	1576.8	1563.6	1550.1	1536.6	1523.3
x1 = 0.4503	1074.04	1070.98	1067.53	1064.1	1060.67	1626.5	1613.6	1600.6	1587.6	1574.8
x1 = 0.5559	1073.89	1070.99	1067.68	1064.39	1061.21	1667	1658.3	1641.9	1629.3	1616.9
x1 = 0.6831	1073.66	1071.08	1067.9	1064.74	1061.59	1707.6	1695.4	1683.1	1670.8	1658.6
x1 = 0.8282	1073.35	1070.87	1067.81	1064.75	1061.71	1744.3	1732.4	1720.3	1708.4	1696.4
x1 = 0.9042	1073.19	1070.77	1067.74	1064.74	1061.75	1760.7	1749	1737	1725.2	1713.4
x1 = 1	1072.74	1070.34	1067.37	1064.42	1061.47	1778.8	1767.2	1755.4	1743.7	1732.1

CCCCn1cc[n+](C)c1.N#C[S-] [1-butyl-3-methylimidazolium thiocyanate] + CCC(=O)O
Conditions	mass density, 293.15 K [kg/m3]	mass density, 298.15 K [kg/m3]	mass density, 303.15 K [kg/m3]	mass density, 308.15 K [kg/m3]	mass density, 313.15 K [kg/m3]	speed of sound, 293.15 K [m/s]	speed of sound, 298.15 K [m/s]	speed of sound, 303.15 K [m/s]	speed of sound, 308.15 K [m/s]	speed of sound, 313.15 K [m/s]
x1 = 0.0698	1015.42	1010.77	1006.13	1001.49	996.86	1260.2	1243	1225.7	1208.3	1191
x1 = 0.1444	1031.52	1027.32	1023.13	1018.95	1014.78	1361.3	1345.7	1329.8	1313.9	1298.1
x1 = 0.2223	1042.18	1038.27	1034.37	1030.48	1026.6	1445.8	1431.2	1416.3	1401.5	1386.8
x1 = 0.306	1049.78	1046.09	1042.4	1038.73	1035.07	1514.4	1500.5	1486.3	1472.3	1458.3
x1 = 0.3989	1055.66	1052.15	1048.65	1045.17	1041.69	1571.4	1558.1	1544.6	1531.1	1517.8
x1 = 0.5022	1060.19	1057.09	1053.43	1050.09	1046.79	1619.3	1606.6	1593.7	1580.8	1568.1
x1 = 0.6068	1064.02	1061.09	1057.85	1054.64	1051.44	1662	1649.6	1637	1624.6	1612.2
x1 = 0.7166	1067.2	1064.46	1061.32	1058.2	1055.09	1700.9	1688.8	1676.4	1664.2	1652.1
x1 = 0.8561	1070.36	1067.84	1064.79	1061.76	1058.74	1742.8	1730.9	1718.9	1707	1695.1
x1 = 0.9209	1071.7	1069.3	1066.3	1063.3	1060.33	1761.8	1750	1738.1	1726.3	1714.6
x1 = 1	1072.74	1070.34	1067.37	1064.42	1061.47	1778.8	1767.2	1755.4	1743.7	1732.1

CCC(=O)O [propanoic acid] + CCCCn1cc[n+](C)c1.N#C[S-]
x2 = 0
Conditions	mass density [kg/m3]	speed of sound [m/s]
293.15 K	993.33	1164.7
298.15 K	987.94	1146
303.15 K	982.54	1127.1
308.15 K	977.14	1108.3
313.15 K	971.75	1089.6
